Results from patent publication US7189751B2, “Oxa(thia)zolidine compounds, process for preparation thereof and anti-inflammatory agents” (Nippon Soda Co., Ltd., priority 2001, dated 2007).

Columns and labels:
[1] = system: acetic acid induced writhes; experiment: Acetic acid writhing; format: in vivo, mouse
Procedure: Pharmacological Test Example 4: Acetic Acid Wirthing
This test was carried out referring to the method of Inoue, K., Motonaga, A. & Nishimura, T (Arzneimittel Forshung/Drug Research, 41 (1): 235–239 (1991)). More specifically, 7.5 mL/kg of 0.9% acetic acid solution was injected intraperitoneally into an ICR-strain male mouse (5 to 7 weeks old), and the induced writhes (characteristic behaviors of convulsive contracting the abdomen, twisting the body and/or extending the legs) were observed. Number of writhes of each mouse was measured during 10 to 20 min. period after acetic acid administration. […] The analgesic activity of the compounds according to the present invention was evaluated on the basis of the degree of inhibiting the number writhes by the administration of the compounds. As the positive control, indomethacin or aspirin was administrated. The analgesic activity of the compounds according to the present invention measured in this test were exemplified in Table 7.

[2] = target: T1, IV-cPLA(2) in activated U937 cells (Homo sapiens, UniProt P47712); experiment: PLA(2) activity: hydrolysis of bis-BODIPY FL C11-PC in TPA/A23187-activated U937 cells; format: cell-based; settings: U-937
T1 sequence (P47712 1-749): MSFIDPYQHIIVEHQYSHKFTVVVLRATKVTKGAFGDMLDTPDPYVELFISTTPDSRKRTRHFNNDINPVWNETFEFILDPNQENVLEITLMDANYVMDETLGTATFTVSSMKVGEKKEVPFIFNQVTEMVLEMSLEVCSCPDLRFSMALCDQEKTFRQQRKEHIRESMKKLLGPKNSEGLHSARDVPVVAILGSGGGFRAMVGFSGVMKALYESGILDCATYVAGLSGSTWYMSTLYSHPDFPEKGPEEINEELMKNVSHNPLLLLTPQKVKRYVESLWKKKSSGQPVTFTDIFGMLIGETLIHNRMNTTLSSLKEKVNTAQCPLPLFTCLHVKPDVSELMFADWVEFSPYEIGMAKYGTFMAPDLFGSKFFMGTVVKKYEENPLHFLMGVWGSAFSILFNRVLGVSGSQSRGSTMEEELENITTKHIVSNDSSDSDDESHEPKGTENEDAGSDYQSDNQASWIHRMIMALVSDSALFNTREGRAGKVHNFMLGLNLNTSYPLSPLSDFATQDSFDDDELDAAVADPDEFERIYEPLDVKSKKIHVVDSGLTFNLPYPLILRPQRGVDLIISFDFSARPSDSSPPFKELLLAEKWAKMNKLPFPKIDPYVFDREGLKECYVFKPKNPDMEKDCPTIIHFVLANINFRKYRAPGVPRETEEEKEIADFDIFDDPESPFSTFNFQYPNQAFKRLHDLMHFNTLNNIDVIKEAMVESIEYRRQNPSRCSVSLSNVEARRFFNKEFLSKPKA
Procedure: The PLA(2) activity was measured by quantitatively analyzing the fluorescent product of hydrolysis from 1,2-bis-(4,4-difluoro-5,7-dimethyl-4-bora-3a,4a-diaza-s-indecene-3-undecanoyl)-sn-glycero-3-phosphocholine (hereinafter referred to bis-BODIPY®FL C11-PC, Molecular probes, Inc., B-7701) using activated U937 cells (human monoblastic lymphoma cell line) by inflammatory stimulus (Meshulam, T. et al., The journal of Biological Chemistry 267 (30): 21465–21470 (1992); and Solito, E. et al., British Journal of Pharmacology 124: 1675–1683(1998).). The substrate bis-BODIPY®FL C11-PC is incorporated into cellular membranes, the proximity of the BODIPY®FL fluorophores on adjacent phospholipid acyl chains causes fluorescence self-quenching. Separation of the fluorophores upon hydrolytic cleavage of one of the acyl chains by PLA(1) or the PLA(2) results in increased fluorescence. […]
The test compound was dissolved with DMSO at 30 mM, and the solution diluted with either DMSO or the Assay medium before addition into the reaction mixture. […] The increased fluorescence of the hydrolysis product by the enzyme was determined by measuring the fluorescence emission intensity at 535 nm with excitation at 485 nm from the top side of each plate at 37° C., using a Multi Functional Microplate Reader SPECTRA FLUOR PLUS (TECAN Austria GmbH). […]

[3] = system: Mouse Ear Edema Induced by TPA; experiment: Mouse ear edema induced by TPA; format: in vivo; settings: for Ear Edema Inhibition (%): topical, ICR male mouse, 6 hours after TPA
Procedure: Pharmacological Test Example 2: Mouse Ear Edema Induced by TPA
This test was carried out referring to the method of Carlson, R. P. et al. (Agents and Actions, 17(2): 197–204 (1985).) and the method of Chang, J. (European Journal of Pharmacology, 142: 197–205 (1987).). More specifically, 5 μg/20 μL of TPA (Sigma Chemical Co.), dissolved with ethanol, was topically applied to the anterior and posterior surfaces of the right ear of an ICR-strain male mouse (6–7 weeks old). 6 hours later, the thickness of each ear at the particular part was respectively measured three times using a digimatic micrometer to calculate the mean value. Ear edema was determined by subtracting the mean thickness of the left ear as without treatment from that of the right ear as TPA-applied. Topical application activity was evaluated by applying an acetone solution of the compound of the present invention or 0.1% Tween 80/acetone solution thereof similarly to the anterior and posterior surfaces of the right ear 30 min. before and 15 min. after the TPA-application. […] Oral administration activity was evaluated by administrating 0.2% Tween 80 suspension of the compound of the present invention forcibly and perorally to the mouse an hour prior to the TPA-application. As the positive control, 100 mg/kg of Hydrocortisone (Sigma Chemical Co., H 4001) suspension was applied to the mouse similarly as for the compound of the present invention.

SMILES: Cc1ccc(S(=O)(=O)C(C#N)=C2N[C@@H](C)[C@@H](c3ccc(Cl)cc3)O2)cc1 (relative stereo) [Compound 1-41, Cis-5-(4-chlorophenyl)-4-methyl-2-(1-(4-methylphenylsulfonyl)-1-cyanomethylene)-oxazolidine]
- Number of writhes (Mean ± S.E.) ([1]; i.p. 1 mg/kg, 30 min before, vehicle i.p. 25.2 ± 2.2): 4.0 ± 1.9
- Number of writhes (Mean ± S.E.) ([1]; p.o. 10 mg/kg, 120 min before, vehicle p.o. 23.5 ± 3.1): 1.3 ± 0.8
- inhibition at 0.1 µM [2]: 100%
- Ear Edema Inhibition (%) ([3]; 1 mg/40 μL/ear × 2): 80.5%

SMILES: CC(=O)Oc1ccccc1C(=O)O [Aspirin, aspirin]
- Number of writhes (Mean ± S.E.) ([1]; i.p. 30 mg/kg, 30 min before, vehicle i.p. 25.2 ± 2.2): 9.5 ± 2.0
- Number of writhes (Mean ± S.E.) ([1]; p.o. 100 mg/kg, 60 min before): 9.5 ± 1.9

SMILES: CC(=O)OCC(=O)[C@@]1(O)[C@H](C)C[C@H]2[C@@H]3CCC4=CC(=O)C=C[C@]4(C)[C@@]3(F)[C@@H](O)C[C@@]21C [DEX-Ac, Dexamathasone-21-acetate]
- body weight after 24 hours ([3]; mice of the TPA ear edema test): reduced
- Ear Edema Inhibition (%) ([3]; 1 mg/20 μL/ear × 2): 79.6%

SMILES: COc1ccc2c(c1)c(CC(=O)O)c(C)n2C(=O)c1ccc(Cl)cc1 [Indomethacin, indomethacin]
- Number of writhes (Mean ± S.E.) ([1]; i.p. 3 mg/kg, 30 min before, vehicle i.p. 25.2 ± 2.2): 13.8 ± 3.0
- Number of writhes (Mean ± S.E.) ([1]; i.p. 10 mg/kg, 30 min before, vehicle i.p. 25.2 ± 2.2): 4.8 ± 0.9
- Number of writhes (Mean ± S.E.) ([1]; p.o. 3 mg/kg, 60 min before): 6.8 ± 2.0
- intoxicated symptoms ([3]; mice of the TPA ear edema test): showed intoxicated symptoms
- body weight after 24 hours ([3]; mice of the TPA ear edema test): reduced
- Ear Edema Inhibition (%) ([3]; 3 mg/40 μL/ear × 2): 63.5%
